Laboratory results taken from patent publication US12030841B2, “Honokiol crystal forms, amorphous form and preparation thereof” (Chengdu Jinrui Foundation Biotech Co., Ltd., priority 2020, dated 2024).
In brackets after ≈: the same amount, converted by molar mass.

Key:
[1] = Solubility test in PBS (saturated solution, HPLC external standard); format: physicochemical; conditions: shaking at 37 °C for 4 h, supernatant by HPLC
Experimental: Since the solubility of the drug directly affects the dissolution and oral bioavailability of the drug preparation, the inventor investigated the solubility of the honokiol crystal forms A, B and C in PBS. Preparing respective saturated solutions of the honokiol crystal forms A, B and C, shaking at 37 °C for 4 h, and centrifuging and transferring the supernatant into a high performance liquid chromatograph. At the same time, preparing a standard solution of the honokiol (source: China Institutes for Food and Drug Control, Batch No.: 110730-201915, ID: EH2H-BMTW), and using the external standard method for quantification.

[2] = Stress tests (high temperature, high humidity, high-light irradiation), related substances by HPLC; format: physicochemical; conditions: for purity after the high humidity test: high humidity (relative humidity 92.5%, 25° C.); for purity after the high temperature test: high temperature (60° C.); for purity after intense light / high-light irradiation test: high-light irradiation (illuminance 45001×+5001×)
Experimental: Treating the honokiol crystal forms A, B and C under high temperature (60° C.), high humidity (relative humidity 92.5%, 25° C.) and high-light irradiation (illuminance 45001×+5001×), respectively, diluting with methanol, and investigating the changes of related substances through testing with HPLC.

| solubility [1] [µg/mL] | purity before the stress test [2] [%] | purity after the high humidity test [2] [%] | purity after the high temperature test [2] [%] | purity after intense light / high-light irradiation test [2] [%] | solubility at 4 h ([1]; PBS, 37 °C, aqueous buffer, thermodynamic from solid) [µg/mL] | SMILES |
| --- | --- | --- | --- | --- | --- | --- |
| 41.35 (≈ 155 µM) | 99.83 | 99.67 | 99.63 | 99.64 | – | C=CCc1ccc(O)c(-c2ccc(O)c(CC=C)c2)c1 [honokiol crystal form A, 3′,5-di-2-propenyl-1,1′-biphenyl-2,4′-diphenol] |
| – | 99.88 | 99.70 | 99.70 | 99.60 | 43.7 (≈ 164 µM) | C=CCc1ccc(O)c(-c2ccc(O)c(CC=C)c2)c1 [honokiol crystal form B, 3′,5-di-2-propenyl-1,1′-biphenyl-2,4′-diphenol] |
| 48.12 (≈ 181 µM) | 99.86 | 99.59 | 99.36 | 99.31 | – | C=CCc1ccc(O)c(-c2ccc(O)c(CC=C)c2)c1 [honokiol crystal form C, 3′,5-di-2-propenyl-1,1′-biphenyl-2,4′-diphenol] |
